Legend:
[1] = Log P (Table 1, no method described)
[2] = molecular target: T1, recombinant human androgen receptor (AR) protein (Homo sapiens, UniProt P10275); test: Small molecule-protein affinity (protein-ligand coupling) assay, Biacore T200 SPR; assay type: binding; conditions: summary of Table 1
T1 construct: RPB252Hu03, Ile673-His918 with N-terminal His Tag; His tag (N); purchased CLOUD-CLONE CORP; WUHAN RPB252Hu03
T1 sequence (P10275 673-918): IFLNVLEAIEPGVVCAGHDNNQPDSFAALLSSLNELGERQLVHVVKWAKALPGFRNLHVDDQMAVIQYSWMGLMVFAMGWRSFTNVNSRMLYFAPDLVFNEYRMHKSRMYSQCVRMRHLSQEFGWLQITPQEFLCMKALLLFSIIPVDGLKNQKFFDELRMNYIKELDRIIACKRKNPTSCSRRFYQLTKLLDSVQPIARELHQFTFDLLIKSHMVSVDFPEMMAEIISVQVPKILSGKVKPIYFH

[3] = Mouse blood-brain barrier permeation assay (LC-MS/MS of serum and brain); assay type: in vivo, C57BL/6J mice; conditions: for concentrations of the compound detected in serum and brain (in words): 20 mg/kg intraperitoneal
Method: Mouse blood-brain barrier permeation assay
Blood was collected by decapitation from the mice (each time point/3 mice) at the following time points: 30 min, 1 h, 2 h, 3 h, 4 h, 8 h, and brain tissue and blood were harvested at 12 h, 24 h, 36 h, 48 h and 72 h. • (3) When collecting serum, heparin sodium blood collection tubes were used.
The supernatant was filtered through a 0.22 µm filter and analyzed by LC-MS/MS.

androgen receptors = molecular target: T2, androgen receptors (Homo sapiens, UniProt P10275); test: Androgen Receptor Reporter Gene Assay in plasmid-transfected HEK293T cells; assay type: cell-based; conditions: HEK-293T
T2 construct: expressed in transfected cells; host or cells: HEK293T (ATCC, CRL-3216)
T2 sequence (P10275 1-920): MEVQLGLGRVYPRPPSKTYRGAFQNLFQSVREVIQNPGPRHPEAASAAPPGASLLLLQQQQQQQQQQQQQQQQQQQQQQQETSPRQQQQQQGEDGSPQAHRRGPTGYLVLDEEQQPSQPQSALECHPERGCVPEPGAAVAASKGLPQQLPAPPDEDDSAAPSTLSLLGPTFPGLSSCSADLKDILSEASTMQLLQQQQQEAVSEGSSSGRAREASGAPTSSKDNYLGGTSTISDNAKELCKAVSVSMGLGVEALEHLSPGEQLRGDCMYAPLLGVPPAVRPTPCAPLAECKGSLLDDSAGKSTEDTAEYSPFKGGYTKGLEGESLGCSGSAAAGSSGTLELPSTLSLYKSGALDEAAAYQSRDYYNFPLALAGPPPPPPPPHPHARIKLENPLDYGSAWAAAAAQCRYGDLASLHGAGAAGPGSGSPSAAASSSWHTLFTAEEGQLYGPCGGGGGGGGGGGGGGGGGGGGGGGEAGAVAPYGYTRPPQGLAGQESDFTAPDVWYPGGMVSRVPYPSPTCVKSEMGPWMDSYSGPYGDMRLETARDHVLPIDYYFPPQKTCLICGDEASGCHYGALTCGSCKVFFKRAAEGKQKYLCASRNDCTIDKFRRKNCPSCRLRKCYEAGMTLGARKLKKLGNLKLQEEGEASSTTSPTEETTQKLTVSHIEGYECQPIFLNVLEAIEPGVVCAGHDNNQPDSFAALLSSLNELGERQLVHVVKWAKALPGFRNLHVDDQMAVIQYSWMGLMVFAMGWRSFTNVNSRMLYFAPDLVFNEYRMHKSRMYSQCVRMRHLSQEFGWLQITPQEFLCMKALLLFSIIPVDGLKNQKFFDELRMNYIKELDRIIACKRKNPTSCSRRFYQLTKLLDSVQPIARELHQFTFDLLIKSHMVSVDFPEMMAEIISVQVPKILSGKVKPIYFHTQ

In the case of `C[C@@](COc1ccc(C#N)cc1)(OC(=O)c1ccccc1)C(=O)Nc1cnc(C#N)c(C(F)(F)F)c1` [Example 26, (S)-1-((6-cyano-5-(trifluoromethyl)pyridin-3-yl)amino)-3-(4-cyanophenoxy)-2-methyl-1-oxopropan-2-yl benzoate], the logP [1] is reported as 4.65, the “affinity to the androgen receptor proteins (in words)” value [2] is reported as “strong affinity” and the “concentrations of the compound detected in serum and brain (in words)” value (“concentrations of the compound detected” for short) [3] is reported as “lower concentrations of the compound and higher concentrations of metabolites were detected in serum and brain”.

With `C[C@](O)(Cn1cnc(C(F)(F)F)cc1=O)C(=O)Nc1ccc(C#N)c(C(F)(F)F)c1` [Example 2] the logP [1] was 3.53.

Work on `C[C@@](COc1ccc(C#N)nc1)(OC(=O)c1cccnc1)C(=O)Nc1ccc(C#N)c(C(F)(F)F)c1` [Example 11, (S)-1-((4-cyano-3-(trifluoromethyl)phenyl)amino)-3-((6-cyanopyridin-3-yl)oxy)-2-methyl-1-oxopropan-2-yl nicotinate] yielded a logP [1] of 3.32.

In the case of `CCC(=O)O[C@@](C)(COc1ccc(C#N)cc1)C(=O)Nc1cnc(C#N)c(C(F)(F)F)c1` [Example 28, (S)-1-((6-cyano-5-(trifluoromethyl)pyridin-3-yl)amino)-3-(4-cyanophenoxy)-2-methyl-1-oxopropan-2-yl-propionate], the “concentrations of the compound detected” value [3] is reported as “lower concentrations of the compound and higher concentrations of metabolites were detected in serum and brain”.

With `C[C@](O)(COc1ccc(C#N)nc1)C(=O)Nc1ccc(C#N)c(C(F)(F)F)c1` [Example 4, (S)-N-(4-cyano-3-(trifluoromethyl)phenyl)-3-((6-cyanopyridin-3-yl)oxy)-2-hydroxy-2-methylpropionamide] the logP [1] was 2.53.

For `C[C@@](COc1ccc(C#N)cc1)(OC(=O)c1cccnc1)C(=O)Nc1cnc(C#N)c(C(F)(F)F)c1` [Example 13, (S)-1-((6-cyano-5-(trifluoromethyl)pyridin-3-yl)amino)-3-(4-cyanophenoxy)-2-methyl-1-oxopropan-2-yl nicotinate], the logP [1] was 3.32 and the “concentrations of the compound detected” value [3] was “lower concentrations of the compound and higher concentrations of metabolites were detected in serum and brain”.

With `CC(C)C(=O)O[C@@](C)(COc1ccc(C#N)cc1)C(=O)Nc1cnc(C#N)c(C(F)(F)F)c1` [Example 21, (S)-1-((6-cyano-5-(trifluoromethyl)pyridin-3-yl)amino)-3-(4-cyanophenoxy)-2-methyl-1-oxopropan-2-yl isobutyrate] the “concentrations of the compound detected” value [3] was “lower concentrations of the compound and higher concentrations of metabolites were detected in serum and brain”.

For `C[C@@](COc1ccc(C#N)cc1)(OC(=O)CCCC[C@@H]1CCSS1)C(=O)Nc1cnc(C#N)c(C(F)(F)F)c1` [Example 15, (S)-1-((6-cyano-5-(trifluoromethyl)pyridin-3-yl)amino)-3-(4-cyanophenoxy)-2-methyl-1-oxopropyl-2-yl 5-((R)-1,2-dithiolan-3-yl) pentanoate], the “concentrations of the compound detected” value [3] was “no effective concentration of the compound was detected in serum and brain”.

In the case of `C[C@](O)(COc1ccc(C#N)cc1)C(=O)Nc1cnc(C#N)c(C(F)(F)F)c1` [Example 3, (S)-N-(6-cyano-5-(trifluoromethyl)pyridin-3-yl)-3-(4-cyanophenoxy)-2-hydroxy-2-methylpropionamide], the logP [1] is reported as 2.53 and the “concentrations of the compound detected” value [3] is reported as “certain concentrations of the compound were detected in serum and brain up to 72 h after administration”.

In the case of `CN1CCC(C(=O)O[C@@](C)(COc2ccc(C#N)cc2)C(=O)Nc2cnc(C#N)c(C(F)(F)F)c2)CC1` [Example 19, (S)-1-((6-cyano-5-(trifluoromethyl)pyridin-3-yl)amino)-3-(4-cyanophenoxy)-2-methyl-1-oxopropyl-2-yl-1-methylpiperidine-4-carboxylate], the logP [1] is reported as 3.2.

In the case of `C[C@](O)(COc1ccc(C#N)c(F)c1)C(=O)Nc1cnc(C#N)c(C(F)(F)F)c1` [Example 8, (S)-3-(4-cyano-3-fluorophenoxy)-N-(6-cyano-5-(trifluoromethyl)pyridin-3-yl)-2-hydroxy-2-methylpropionamide], the “concentrations of the compound detected” value [3] is reported as “certain concentrations of the compound were detected in serum and brain up to 72 h after administration”.

In the case of `C[C@](O)(COc1ccc(C#N)nc1)C(=O)Nc1cnc(C#N)c(C(F)(F)F)c1` [Example 5, (S)-N-(6-cyano-5-(trifluoromethyl)pyridin-3-yl)-3-((6-cyanopyridin-3-yl)oxy)-2-hydroxy-2-methylpropionamide], the logP [1] is reported as 1.61.

For `CN(C)CCC(=O)O[C@@](C)(COc1ccc(C#N)cc1)C(=O)Nc1cnc(C#N)c(C(F)(F)F)c1` [Example 14, (S)-1-((6-cyano-5-(trifluoromethyl)pyridin-3-yl)amino)-3-(4-cyanophenoxy)-2-methyl-1-oxopropyl-2-yl 3-(dimethylamino)propanate], the logP [1] was 2.86.

For `C[C@](O)(COc1ccc(C#N)cc1)C(=O)Nc1ccc(C#N)c(C(F)(F)F)c1` [Ostarine, reference compound], the logP [1] was 3.49, the “affinity to the androgen receptor proteins (in words)” value [2] was “no binding affinity” and the Emax (androgen receptors) was 78.4%.

In the case of `CN1C=CCC(C(=O)O[C@@](C)(COc2ccc(C#N)cc2)C(=O)Nc2ccc(C#N)c(C(F)(F)F)c2)=C1` [Example 35, (S)-1-((4-cyano-3-(trifluoromethyl)phenyl)amino)-3-(4-cyanophenoxy)-2-methyl-1-oxopropan-2-yl 1-methyl-1,4-dihydropyridine-3-carboxylate], the logP [1] is reported as 4.45.

In the case of `CC(=O)O[C@@](C)(COc1ccc(C#N)cc1)C(=O)Nc1cnc(C#N)c(C(F)(F)F)c1` [Example 24, (S)-1-((6-cyano-5-(trifluoromethyl)pyridin-3-yl)amino)-3-(4-cyanophenoxy)-2-methyl-1-oxopropan-2-yl acetate], the logP [1] is reported as 2.76 and the “bioavailability in the brain” value ([3]; compared with the compound of Example 3) is reported as “significantly improved”.

For `CCCS(=O)(=O)O[C@@](C)(COc1ccc(C#N)cc1)C(=O)Nc1cnc(C#N)c(C(F)(F)F)c1` [Example 17, (S)-1-((6-cyano-5-(trifluoromethyl)pyridin-3-yl)amino)-3-(4-cyanophenoxy)-2-methyl-1-oxopropan-2-yl propane-1-sulfonate], the logP [1] was 3.07.

Compound `C[C@](O)(Cn1cnc(C(F)(F)F)cc1=O)C(=O)Nc1cnc(C#N)c(C(F)(F)F)c1` [Example 1] has a logP [1] of 2.62.

Source: patent publication EP4810484A1, “NEUROACTIVE ANDROGEN RECEPTOR MODULATOR AND USE THEREOF” (Endochem Pharmaceuticals (Beijing) Co., Ltd., priority 2023, dated 2025)
